Earlier results as cited in patent US5374661A (Sano Corporation, priority 1993, dated 1994).

How the values were obtained:
[1] = oral

Question: For `O=C(O)Cc1ccccc1Nc1c(Cl)cccc1Cl` [Diclofenac], which “less frequent side effects” value [1] is on record?
Answer: abdominal distension, flatulence and peptic ulcers with bleeding

Question: What about the “most common gastrointestinal side effects” value [1] of the same compound?
Answer: nausea, vomiting, abdominal pain, dyspepsia and diarrhea

Question: What about the “inhibition of cyclooxygenase pathway (in words)” value (cyclooxygenase) of the same compound?
Answer: inhibits the cyclooxygenase pathway with subsequent reduction in prostaglandin and thromboxane production

Question: What about the “inhibition of lipoxygenase pathway (in words)” value (lipoxygenase pathway) of the same compound?
Answer: may inhibit the lipoxygenase pathway with subsequent reduction in leukotriene production
